As a reminder, the Emax is the greatest response seen or fitted, relative to the assay's reference.

These results are taken from patent US11191758B2, “Use of selective serotonin 5-HT1A receptor agonists for treating side-effects of VMAT inhibitors” (Neurolixis, priority 2017, dated 2021).

Data set [1] deals with T1, serotonin 5-HT1A receptors (Rattus norvegicus, UniProt P19327).
T1 construct: Hippocampi were dissected and homogenized in 20 volumes of buffer A; from tissue; host or cells: rat hippocampus membranes (male Sprague-Dawley)
T1 sequence (P19327 1-422): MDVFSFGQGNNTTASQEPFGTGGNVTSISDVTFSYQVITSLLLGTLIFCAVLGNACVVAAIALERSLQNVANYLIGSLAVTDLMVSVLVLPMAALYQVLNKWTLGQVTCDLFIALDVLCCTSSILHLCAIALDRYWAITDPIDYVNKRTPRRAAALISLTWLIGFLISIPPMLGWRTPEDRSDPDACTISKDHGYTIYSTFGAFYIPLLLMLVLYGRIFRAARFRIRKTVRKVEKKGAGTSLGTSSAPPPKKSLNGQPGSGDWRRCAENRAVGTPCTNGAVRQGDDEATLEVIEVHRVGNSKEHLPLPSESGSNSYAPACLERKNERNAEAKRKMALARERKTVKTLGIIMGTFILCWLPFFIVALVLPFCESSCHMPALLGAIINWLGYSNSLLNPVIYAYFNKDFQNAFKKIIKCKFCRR
Put plainly: [35S]GTPγS binding G-protein activation assay, rat hippocampal membranes. The format is biochemical. As to conditions: for Emax: read-out: Emax, stimulation of [35S]GTPγS binding relative to 5-HT. On the procedure:
Agonist efficacy for stimulation of G-protein activation at serotonin 5-HT1A receptors can be determined by [^35S]GTPγS binding assays as follows. Experiments employed brains of male Sprague-Dawley rats which were stored at −70° C. before use in binding assays. Experiments were carried out in triplicate and repeated at least three times. Frozen brains were thawed in ice-cold buffer A (50 mM Hepes containing 150 mM NaCl, 0.2 mM EDTA, 1 mM GTP, 10 μM pargyline; pH 7.4, 23° C.). Hippocampi were dissected and homogenized in 20 volumes of buffer A before incubation at 37° C. for 10 min to dissociate endogenous neurotransmitters from receptors. The homogenate was centrifuged at 20 000 g for 15 min, at 4° C. The pellet was re-suspended in buffer A and recentrifuged as before. The pellet was then re-suspended in buffer B (50 mM Hepes containing 150 mM NaCl, 0.2 mM EDTA, 5 mM MgCl2, 100 μM GDP, 10 μM pargyline), centrifuged as before and re-suspended in buffer B. Membranes were incubated in buffer B with test compounds and 0.1 nM [^35S]GTPγS for 60 min at 37° C. The incubation was terminated by rapid filtration through Whatman GF-B fiber filters using a Brandel harvester. Radioactivity retained on the filters was measured by liquid scintillation counting. Data were analyzed using a nonlinear curve-fitting program (Prism, Graphpad Software, San Diego, Calif., USA), and are expressed as mean value±S.E.M.
It should be noted that 5-HT can activate different 5-HT receptors. Herein, only the proportion of 5-HT's effect which is 5-HT1A receptor-dependent was considered in the calculations.
(Binding of GTPγS marks nucleotide exchange on a G protein.)

Data set [2] relates to TBZ-treated rats (catalepsy). The data set can be described thus: Cross-legged position (CLP) catalepsy test, TBZ-induced catalepsy. As to conditions: TBZ 2 mg/kg i.p. The format is in vivo, rat. On the procedure: Animals were obtained, housed and handled according to the same protocols described for Example 3. Similarly, drugs were prepared and administered according to the same protocols described for Example 3. All compounds were tested at the dose of 0.63 mg/kg.
Catalepsy induction in rats is a recognized model of Parkinsonism (Duty, S., 2011 Br J Pharmacol. 164, 1357-91). Here, catalepsy was measured using the cross-legged position test (CLP test) according to the method described by (Prinssen, E. P., et al., 1998 Eur J Pharmacol. 356, 189-92). Serotonin 5-HT1A receptor agonists were administered to rats (at least 6 per group) by oral administration (p.o.) 55 minutes before the CLP test, TBZ (2 mg/kg) was administered to rats by intraperitoneal (i.p.) route 30 min before testing. In the CLP test, the hind-limbs were placed over the ipsilateral forelimbs and the time during which an animal remained in this position was determined up to maximum of 30 seconds. The test was repeated three times (inter-trial time: 3 minutes) and the mean of the three trials was used for analysis. Animals were put back in their home cage after each set of tests.

Data set [3] has as its system patients with chorea associated with HD. As to conditions: cited from earlier work.
The test system of data set [4] is TBZ-treated rats (immobility, depression behavior). Put plainly: Forced Swim Test, 5-HT1A receptor agonists in TBZ-treated rats. It is filed as in vivo, rat. As to conditions: TBZ […] i.p. On the procedure:
The experiments were performed on male Wistar rats (170-200 g) obtained from an accredited animal facility at the Jagiellonian University Medical College, Poland. The animals were housed in group of four in controlled environment (ambient temperature […]; relative humidity 55%±10%; 12-h light/dark cycles (lights on at 8:00). Standard laboratory food (LSM-B) and filtered water were freely available. Animals were assigned randomly to treatment groups. All the experiments were performed by two observers unaware of the treatment applied between 9:00 and 14:00 on separate groups of animals. All animals were used only once. All the experimental procedures complied with the European Communities Council Directive of 24 Nov. 1986 (86/609/EEC) and were in accordance with the 1996 NIH Guide for the Care and Use of Laboratory Animals.
Tetrabenazine (TBZ) was dissolved in a vehicle solution of 0.9% saline and dimethylsulfoxide (DMSO) (20%). 10-μl hydrochloric acid (HCl) was then added to achieve full solubilization of the drug. TBZ (1.5 mg/kg) was administered intraperitoneally (i.p.).
All compounds were given in a volume of 2 ml/kg. […]
The experiment was carried out according to a well-characterized method (Porsolt, R. D., et al., 1978 Eur J Pharmacol 47, 379-91). On the first day of an experiment, the animals (at least n=6 per group) were gently individually placed in Plexiglas cylinders (40 cm high, 18 cm in diameter) containing water (17 cm deep) maintained at 23-25° C. for 15 min. On removal from water, the rats were placed for 30 min in a Plexiglas box under a 60 W incandescent filament bulb to dry. On the following day (24 h later), TBZ (1.5 mg/kg) was administered to rats by intraperitoneal (i.p.) route 90 min before testing. Serotonin 5-HT1A receptor agonists were then administered to rats by oral administration (p.o.) 60 minutes before the rats were re-placed in the cylinder and the total duration of their immobility was recorded during the 5-min test period. The swimming behavior entailed active swimming motions, e.g., moving horizontally around in the cylinder, and immobility was assigned when no additional activity was observed other than that necessary to keep the rat's head above the water.

The conditions of data set [5]: cited from earlier work.
Data set [6] has as its target other 5-HT, dopaminergic, adrenergic receptors. As to conditions: cited from earlier work.
[7] abbreviates: 0.63 mg/kg p.o. ((±)8-OH-DPAT s.c.).
[8] abbreviates: agonist 10 μM, % of stimulation by 5-HT 10 μM (5-HT1A-dependent part).

“Also recorded” adds a separate entry of the source. Like-named read-outs stand apart in the source and are kept apart here. Where only a bound is given, the exact number is not on record here.

`Cc1cnc(CNCC2(F)CCN(C(=O)c3ccc(F)c(Cl)c3)CC2)nc1` [derivative 1a, 3-chloro-4-fluorophenyl-[4-fluoro-4-[[(5-methylpyrimidin-2-ylmethyl)amino]methyl]piperidin-1-yl]methanone]: the Emax in data set [1] was greater than 90%. Further, the “effect on TBZ-induced CLP catalepsy duration” value in data set [2] (setting [7]) is recorded as “almost no CLP catalepsy; also recorded: significantly decreased durations of catalepsy”.
For `COc1cc2c(cc1OC)[C@@H]1CC(=O)[C@@H](CC(C)C)CN1CC2` (racemic) [TBZ, (SS,RR)-3-Isobutyl-9,10-dimethoxy-1,3,4,6,7,11b-hexahydro-pyrido[2,1-a]isoquinolin-2-one], the “patients with symptoms suggestive of Parkinsonism” value in data set [3] (12-week double-blind, placebo-controlled study, placebo 0%) is listed as 15%; in data set [3] (48-week open-label study), 10%; in data set [3] (80-week open-label study), 3%.
On to `O=C1CC2(CCCC2)CC(=O)N1CCCCN1CCN(c2ncccn2)CC1` [buspirone], for which the Emax in data set [1] (setting [8]) was roughly 50%. In addition, the “effect on TBZ-induced CLP catalepsy duration” value in data set [2] (buspirone 0.63, 2.5 or 5 mg/kg) was “does not diminish TBZ-induced catalepsy behavior; also recorded: None of the doses of buspirone showed durations of catalepsy that differed significantly”. Further, the “effect on immobility duration in TBZ-treated rats” value in data set [4] (buspirone 0.63 or 2.5 mg/kg p.o.) is reported as “did not reduce immobility”; in data set [4] (buspirone 0.63 or 2.5 mg/kg p.o., listed as Buspirone), “did not reduce immobility duration significantly”.
As for `CCCN(CCC)C1CCc2cccc(O)c2C1` (racemic) [(±)8-OH-DPAT, (±)8-hydroxy-2-(di-n-propylamino)tetralin], the “Emax, stimulation of [35S]GTPγS binding relative to 5-HT” value in data set [1] (setting [8]) was “intermediate between that of buspirone and the other compounds; also recorded: intermediate efficacy”. In addition, in data set [2] (setting [7]), the “effect on TBZ-induced CLP catalepsy duration” value is “almost no CLP catalepsy; also recorded: significantly decreased durations of immobility”. Further, in data set [5], the oral bioavailability result is reported as “poorly bioavailable by oral route”.
For the compound `NCCc1c[nH]c2ccc(O)cc12` [5-HT, 5-hydroxytryptamine], in data set [1] (from WAY100635 (1 μM) co-incubation), the “share of 5-HT-induced [35S]GTPγS binding mediated by 5-HT1A receptors” value stood at 85%.
On to `Cc1ccc(CNCC2(F)CCN(C(=O)c3ccc(F)c(Cl)c3)CC2)nc1` [befiradol, (3-Chloro-4-fluoro-phenyl)-[4-fluoro-4-{[(5-methyl-pyridin-2-ylmethyl)-amino]-methyl}piperidin-1-yl]methanone], for which, in data set [1], the Emax was greater than 90%. Moreover, the “effect on TBZ-induced CLP catalepsy duration” value in data set [2] (setting [7]) is “almost no CLP catalepsy; also recorded: significantly decreased durations of immobility”. Moreover, the “effect on immobility duration in TBZ-treated rats” value is “significantly decreased durations of immobility” in data set [4] (setting [7]) and “significantly reduced immobility times” in data set [4] (0.63 mg/kg p.o. ((±)8-OH-DPAT s.c.), listed as Befiradol). In data set [6], the “pKi at other 5-HT, dopaminergic, adrenergic receptors” value is given as “less than 6”.
